In US20250289806A1, “COMPOUNDS FOR PROLIFERATIVE DISORDERS” (UNIVERSITY OF MIAMI, priority 2022, published 2025):
Read-outs that look alike come from different tables or passages of the source. One block for each compound: values may come before it.

Columns and labels:
MYLK4 = molecular target: T1, MYLK4 (Homo sapiens, UniProt Q86YV6); assay: Enzymatic activity assay (Reaction Biology Corporation), MYLK4; assay type: biochemical
T1 construct: purchased Reaction Biology Corporation
T1 sequence (Q86YV6 1-388): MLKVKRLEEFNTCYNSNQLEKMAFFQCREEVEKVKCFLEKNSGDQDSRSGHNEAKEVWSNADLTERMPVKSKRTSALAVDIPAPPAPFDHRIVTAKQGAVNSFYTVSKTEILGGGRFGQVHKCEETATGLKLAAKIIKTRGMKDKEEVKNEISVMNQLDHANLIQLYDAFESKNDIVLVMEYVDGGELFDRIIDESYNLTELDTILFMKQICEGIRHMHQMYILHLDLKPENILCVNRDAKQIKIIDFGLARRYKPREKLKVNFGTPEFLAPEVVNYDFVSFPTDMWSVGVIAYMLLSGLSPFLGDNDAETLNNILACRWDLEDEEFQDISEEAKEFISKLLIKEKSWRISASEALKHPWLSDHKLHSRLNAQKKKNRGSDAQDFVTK
Experimental: (§1) All enzymatic assays and panel profiling studies are activity assays, which were carried out by Reaction Biology Corporation according to the company's protocols.

STK17A = molecular target: T2, STK17A (Homo sapiens, UniProt Q9UEE5); assay: Enzymatic activity assay (Reaction Biology Corporation), STK17A; assay type: biochemical
T2 construct: purchased Reaction Biology Corporation
T2 sequence (Q9UEE5 1-414): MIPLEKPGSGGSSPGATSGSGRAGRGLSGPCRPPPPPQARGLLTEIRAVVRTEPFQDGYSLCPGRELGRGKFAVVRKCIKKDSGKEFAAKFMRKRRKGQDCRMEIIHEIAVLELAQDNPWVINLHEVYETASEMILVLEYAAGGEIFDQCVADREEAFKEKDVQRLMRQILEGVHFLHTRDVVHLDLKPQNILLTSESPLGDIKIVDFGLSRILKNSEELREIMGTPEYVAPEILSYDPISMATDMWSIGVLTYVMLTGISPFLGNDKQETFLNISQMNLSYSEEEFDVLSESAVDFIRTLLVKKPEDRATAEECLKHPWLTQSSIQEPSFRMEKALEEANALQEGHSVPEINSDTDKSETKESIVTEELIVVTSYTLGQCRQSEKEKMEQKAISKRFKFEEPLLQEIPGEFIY
Experimental: as §1

DDR1 = molecular target: T3, DDR1 (Homo sapiens, UniProt Q08345); assay: Enzymatic activity assay (Reaction Biology Corporation), DDR1; assay type: biochemical
T3 construct: purchased Reaction Biology Corporation
T3 sequence (Q08345 19-913): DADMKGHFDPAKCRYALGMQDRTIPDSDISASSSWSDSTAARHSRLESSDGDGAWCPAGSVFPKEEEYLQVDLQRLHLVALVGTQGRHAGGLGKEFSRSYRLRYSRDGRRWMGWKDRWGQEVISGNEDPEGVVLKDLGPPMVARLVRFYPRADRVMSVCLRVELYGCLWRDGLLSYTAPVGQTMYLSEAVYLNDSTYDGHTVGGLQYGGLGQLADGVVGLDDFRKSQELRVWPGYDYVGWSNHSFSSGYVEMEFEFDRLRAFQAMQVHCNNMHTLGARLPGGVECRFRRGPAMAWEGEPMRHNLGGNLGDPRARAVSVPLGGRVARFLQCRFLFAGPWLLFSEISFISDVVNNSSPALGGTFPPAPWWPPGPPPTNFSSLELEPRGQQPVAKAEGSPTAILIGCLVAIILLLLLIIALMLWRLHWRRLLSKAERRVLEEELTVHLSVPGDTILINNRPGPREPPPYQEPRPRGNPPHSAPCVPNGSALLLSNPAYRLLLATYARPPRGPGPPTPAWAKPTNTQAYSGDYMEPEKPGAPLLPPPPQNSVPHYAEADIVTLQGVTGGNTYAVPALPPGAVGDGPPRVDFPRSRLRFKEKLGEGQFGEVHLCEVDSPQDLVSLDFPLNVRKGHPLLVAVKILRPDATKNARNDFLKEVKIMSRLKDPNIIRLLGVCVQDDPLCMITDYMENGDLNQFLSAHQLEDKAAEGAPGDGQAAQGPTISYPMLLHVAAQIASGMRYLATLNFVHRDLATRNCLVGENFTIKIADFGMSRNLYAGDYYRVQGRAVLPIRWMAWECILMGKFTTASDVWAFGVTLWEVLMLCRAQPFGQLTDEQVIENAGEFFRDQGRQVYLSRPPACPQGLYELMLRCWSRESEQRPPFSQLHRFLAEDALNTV
Experimental: as §1

K562 = assay: Cell viability assay, K562; assay type: cell-based; settings: Homo sapiens
HEL = assay: Cell viability assay, HEL; assay type: cell-based; settings: Homo sapiens
HEL92.1.7 = assay: cells; settings: Homo sapiens, HEL 92.1.7, 72 h
MOLM-13 = assay: Cell viability assay, MOLM-13; assay type: cell-based; settings: Homo sapiens
RPMI8226 = assay: Cell viability assay, RPMI8226; assay type: cell-based; settings: Homo sapiens, RPMI-8226
OCI-AML3 = assay: Cell viability assay, OCI-AML3; assay type: cell-based; settings: Homo sapiens, OCI-AML-3
K562 SF3B1 K666N = assay: cells; settings: Homo sapiens, K562, 72 h
LP1 = assay: Cell viability assay, LP1; assay type: cell-based; settings: Homo sapiens, LP-1
TF1 = assay: Cell viability assay, TF1; assay type: cell-based; settings: Homo sapiens, TF-1
MEC-1 = assay: Cell viability assay, MEC-1; assay type: cell-based; settings: Homo sapiens, MEC1
OPM2 = assay: Cell viability assay, OPM2; assay type: cell-based; settings: Homo sapiens, OPM-2
SKMM2 = assay: Cell viability assay, SKMM2; assay type: cell-based; settings: Homo sapiens, SK-MM-2
Kasumi-1 = assay: Cell viability assay, Kasumi-1; assay type: cell-based; settings: Homo sapiens
Jurkat = assay: Cell viability assay, Jurkat; assay type: cell-based; settings: Homo sapiens
RIVA = assay: Cell viability assay, RIVA; assay type: cell-based
MM-M1 = assay: Cell viability assay, MM-M1; assay type: cell-based
MDSL = assay: cells; settings: 72 h
U266B1 = assay: Cell viability assay, U266B1; assay type: cell-based
HL-60 = assay: Cell viability assay, HL-60; assay type: cell-based; settings: Homo sapiens
KMS12PE = assay: Cell viability assay, KMS12PE; assay type: cell-based; settings: Homo sapiens, KMS-12-PE
KMS12BM = assay: Cell viability assay, KMS12BM; assay type: cell-based; settings: Homo sapiens, KMS-12-BM
NALM-6 = assay: cells; settings: Homo sapiens, NALM-6, 72 h
MOLT4 = assay: Cell viability assay, MOLT4; assay type: cell-based; settings: Homo sapiens
HEK293T = assay: Cell viability assay, HEK293T (non-cancer cell line); assay type: cell-based; settings: Homo sapiens, HEK-293T
BJAB = assay: Cell viability assay, BJAB; assay type: cell-based; settings: Homo sapiens
SET-2 = assay: Cell viability assay, SET-2; assay type: cell-based; settings: Homo sapiens
SKNO-1 = assay: Cell viability assay, SKNO-1; assay type: cell-based
RS4; 11 = assay: Cell viability assay, RS4; 11; assay type: cell-based; settings: Homo sapiens
NALM-6 SF3B1 K666N = assay: cells; settings: Homo sapiens, NALM-6, 72 h
MV-4-11 = assay: Cell viability assay, MV-4-11; assay type: cell-based; settings: Homo sapiens, MV4-11
THP-1 = assay: Cell viability assay, THP-1; assay type: cell-based; settings: Homo sapiens
[1] = enzymatic activity assay, read-out: IC50 STK17A
[2] = enzymatic activity assay, read-out: IC50 MYLK4
[3] = lymphoma, cell viability, 72 hours
[4] = multiple myeloma, cell viability, 72 hours
[5] = multiple myeloma (Example 90 table)

Structure (SMILES): c1cc(-c2ccc3nc(N4CCCC4)ncc3c2)nc(Nc2ccc(N3CCNCC3)cc2)n1 [Example 1, N-(4-(piperazin-1-yl)phenyl)-4-(2-(pyrrolidin-1-yl)quinazolin-6-yl)pyrimidin-2-amine]
IC50 (MYLK4): < 0.05 µM
IC50 (STK17A): 0.05 to 0.1 µM

IC50 (MYLK4): < 0.05 µM
IC50 (STK17A; [1]): < 0.05 µM
Structure (SMILES): c1cc(-c2ccc3nc(N4CCCC4)ncc3c2)nc(Nc2ccc(N3CCOCC3)cc2)n1 [Example 2]

IC50 (DDR1): 0.05 to 0.1 µM
IC50 (MYLK4; [2]): < 0.05 µM
IC50 (STK17A; [1]): < 0.05 µM
Structure (SMILES): c1cc(-c2ccc3nc(N4CCCC4)ncc3c2)nc(Nc2cnn(C3CCNCC3)c2)n1 [Example 3]

IC50 (MYLK4): < 0.05 µM
IC50 (STK17A; [1]): < 0.05 µM
Structure (SMILES): c1cc(-c2ccc3nc(N4CCCC4)ncc3c2)nc(Nc2ccc(N3CCNCC3)nc2)n1 [Example 4]

IC50 (STK17A; [1]): > 0.1 µM
Structure (SMILES): O=C(NC1CCNCC1)c1ccc(Nc2nccc(-c3ccc4nc(N5CCCC5)ncc4c3)n2)cc1 [Example 5]

IC50 (STK17A; [1]): > 0.1 µM
Structure (SMILES): CC(C)NC(=O)c1cccc(Nc2nccc(-c3ccc4nc(N5CCCC5)ncc4c3)n2)c1 [Example 6]

IC50 (K562; K562, chronic myeloid leukemia, cell viability, 72 hours): 4.79 µM
IC50 (HEL92.1.7): 0.769 µM
IC50 (MOLM-13; MOLM-13, acute myeloid leukemia, cell viability, 72 hours): 0.924 µM
IC50 (RPMI8226; RPMI8226, multiple myeloma, cell viability, 72 hours): 8.96 µM
IC50 (OCI-AML3; OCI-AML3, acute myeloid leukemia, cell viability, 72 hours): > 100 µM
IC50 (K562 SF3B1 K666N): 0.182 µM
IC50 (MYLK4): 0.05 to 0.1 µM
IC50 (SKMM2; SKMM2, multiple myeloma, cell viability, 72 hours): > 100 µM
IC50 (Jurkat; acute lymphoblastic leukemia, cell viability, 72 hours): 25.7 µM
IC50 (MDSL): > 100 µM
IC50 (U266B1; U266B1, multiple myeloma, cell viability, 72 hours): > 100 µM
IC50 (HL-60; HL-60, acute myeloid leukemia, cell viability, 72 hours): > 100 µM
IC50 (NALM-6): 5.5 µM
IC50 (MOLT4; MOLT-4, MOLT4, acute lymphoblastic leukemia, cell viability, 72 hours): 16.1 µM
IC50 (SKNO-1; SKNO-1, acute myeloid leukemia, cell viability, 72 hours): 16.9 µM
IC50 (RS4; 11; RS4, 11, acute lymphoblastic leukemia, cell viability, 72 hours): 8.37 µM
IC50 (NALM-6 SF3B1 K666N): 0.908 µM
IC50 (STK17A; [1]): < 0.05 µM
IC50 (MV-4-11; MV-4-11, acute myeloid leukemia, cell viability, 72 hours): 3.69 µM
IC50 (THP-1; THP-1, acute myeloid leukemia, cell viability, 72 hours): 20 µM
Structure (SMILES): CC(C)NC(=O)c1ccc(Nc2nccc(-c3ccc4nc(N5CCCC5)ncc4c3)n2)cc1 [Example 7]
IC50 (HEL; acute myeloid leukemia, cell viability, 72 hours): 3.6 µM
IC50 (LP1; LP1, multiple myeloma, cell viability, 72 hours): 31.6 µM
IC50 (TF1; TF1, acute myeloid leukemia, cell viability, 72 hours): > 100 µM
IC50 (MEC-1; MEC-1, lymphoma, cell viability, 72 hours): > 100 µM
IC50 (OPM2; OPM2, multiple myeloma, cell viability, 72 hours): 23.1 µM
IC50 (Kasumi-1; Kasumi-1, acute myeloid leukemia, cell viability, 72 hours): 8.1 µM
IC50 (RIVA; [3]): > 100 µM
IC50 (MM-M1; MM-M1, multiple myeloma, cell viability, 72 hours): > 100 µM
IC50 (KMS12PE; [4]): > 100 µM
IC50 (KMS12BM; [4]): 2.47 µM
IC50 (HEK293T; non-hematological cell line, cell viability, 72 hours): > 100 µM
IC50 (BJAB; [3]): > 100 µM
IC50 (SET-2; SET-2, acute myeloid leukemia, cell viability, 72 hours): 3.71 µM

IC50 (DDR1): > 0.1 µM
IC50 (MYLK4): 0.05 to 0.1 µM
IC50 (STK17A; [1]): < 0.05 µM
Structure (SMILES): CC(C)NC(=O)c1ccc(Nc2nccc(-c3ccc4nc(N5CCOCC5)ncc4c3)n2)cc1 [Example 20]

IC50 (MYLK4): < 0.05 µM
IC50 (STK17A; [1]): < 0.05 µM
Structure (SMILES): c1cc(-c2ccc3nc(N4CCOCC4)ncc3c2)nc(Nc2ccc(N3CCNCC3)cc2)n1 [Example 26]

IC50 (K562; K562, chronic myeloid leukemia (Example 90 table)): 8.71 µM
IC50 (MOLM-13; MOLM-13, acute myeloid leukemia (Example 90 table)): 0.196 µM
IC50 (DDR1): < 0.05 µM
IC50 (RPMI8226; RPMI8226, multiple myeloma (Example 90 table)): 2.7 µM
IC50 (OCI-AML3; OCI-AML3, acute myeloid leukemia (Example 90 table)): 0.886 µM
IC50 (MYLK4; [2]): < 0.05 µM
IC50 (SKMM2; SKMM2, multiple myeloma (Example 90 table)): 6.62 µM
IC50 (Jurkat; acute lymphoblastic leukemia (Example 90 table)): 6.14 µM
IC50 (U266B1; U266B1, multiple myeloma (Example 90 table)): 12.6 µM
IC50 (HL-60; HL-60, HL60, acute myeloid leukemia (Example 90 table)): 5 µM
IC50 (MOLT4; MOLT-4, acute lymphoblastic leukemia (Example 90 table)): > 100 µM
IC50 (SKNO-1; SKNO-1, acute myeloid leukemia (Example 90 table)): 14.8 µM
IC50 (RS4; 11; RS4-11, RS411, acute lymphoblastic leukemia (Example 90 table)): 10.1 µM
IC50 (STK17A; [1]): < 0.05 µM
IC50 (MV-4-11; MV-4-11, acute myeloid leukemia (Example 90 table)): 0.321 µM
IC50 (THP-1; THP-1, acute myeloid leukemia (Example 90 table)): 1.15 µM
Structure (SMILES): c1cc(-c2ccc3nc(N4CCOCC4)ncc3c2)nc(Nc2cnn(C3CCNCC3)c2)n1 [Example 27]
IC50 (HEL; acute myeloid leukemia (Example 90 table)): > 100 µM
IC50 (LP1; LP1, multiple myeloma (Example 90 table)): 1.11 µM
IC50 (TF1; TF1, acute myeloid leukemia (Example 90 table)): 15 µM
IC50 (MEC-1; MEC-1, lymphoma (Example 90 table)): 14.2 µM
IC50 (OPM2; OPM2, multiple myeloma (Example 90 table)): 6.85 µM
IC50 (Kasumi-1; Kasumi-1, acute myeloid leukemia (Example 90 table)): 0.53 µM
IC50 (RIVA; lymphoma (Example 90 table)): 9.2 µM
IC50 (MM-M1; MM-M1, multiple myeloma (Example 90 table)): 8.07 µM
IC50 (KMS12PE; [5]): 2.81 µM
IC50 (KMS12BM; [5]): 2.81 µM
IC50 (HEK293T; non-hematological cell line (Example 90 table)): > 100 µM
IC50 (BJAB; lymphoma (Example 90 table)): 12.1 µM
IC50 (SET-2; SET-2, acute myeloid leukemia (Example 90 table)): 0.648 µM

IC50 (MYLK4; [2]): < 0.05 µM
IC50 (STK17A; [1]): < 0.05 µM
Structure (SMILES): OCCn1cc(Nc2nccc(-c3ccc4nc(N5CCOCC5)ncc4c3)n2)cn1 [Example 28]

IC50 (DDR1): < 0.05 µM
IC50 (STK17A; [1]): < 0.05 µM
Structure (SMILES): OCCN1CCC(n2cc(Nc3nccc(-c4ccc5nc(N6CCOCC6)ncc5c4)n3)cn2)CC1 [Example 29]
